# In US20090203634A1, “Compositions and Uses of Amooranin Compounds” (Variety Children's Hospital d/b/a Miami Children's Hospital, priority 2005, published 2009):
# Structures can show the parent of a compound that is named as a salt. Where two headings read alike, the source gives them in different places. Marks after values point to notes of the source that are not given here.
# How the values were obtained:
# [1] = test system: SW620 human tumor xenografts; assay: Xenograft studies with AMR in nude mice; assay type: in vivo; conditions: for Therapeutic ratio: Therapeutic Ratio = 100 - Tumor Growth Rate Index (GRI)
# Method: Xenograft studies with AMR in nude mice. Male athymic nude (nu/nu) mice of the BALB/c strain (4-5 weeks old) were purchased from Taconic Labs, NY. SW620 colon carcinoma cells (10^6/site) in 0.1 ml of Hank's balanced salt solution were injected subcutaneously into the right flank of the nude mice using a 21 gauge needle. When the tumors reached approximately 0.5 cm^3 size in volume (usually 14 days), chemotherapy with AMR was started involving six animals in each group with almost similar size tumors. […] AMR was dissolved in 1:1 mixture of Cremophor EL and ethanol for administration and the control treatments were doxorubicin dissolved in phosphate dissolved saline and saline alone (0 mg/kg). Tumor size (length and width) was recorded on every fifth day of treatment along with body weight and survival data. Tumor volume was calculated using the following formula: […]
# Tumor growth rate was calculated as mean V1/V0 where V1 is the volume on the evaluation day of treatment effect and V0 is that on the first day of treatment. The growth rate index and therapeutic index estimates were calculated using the following formulae:
# Therapeutic Ratio=100—Tumor Growth Rate Index (GRI)
# [2] = test system: SW620/Ad-300; assay: MTT cytotoxicity assay (Examples 1-5); assay type: cell-based, human; conditions: for IC50: mean ± SD (n = 3)
# Source text: (§1) Cytotoxicity Assay (Examples 1-5). […] Cell proliferation kit I (MTT) from Roche Diagnostics GmbH (Indianapolis, Ind.) was used for cytotoxicity assays and manufacturers protocol was followed for the assay.
# [3] = test system: CEM; assay: MTT cytotoxicity assay (Examples 1-5); assay type: cell-based, human
# Source text: as §1
# [4] = test system: CEM/VLB; assay: MTT cytotoxicity assay (Examples 1-5); assay type: cell-based, human
# Source text: as §1
# [5] = test system: MCF-7/TH; assay: DNA fragmentation by agarose gel electrophoresis; assay type: cell-based, human
# Method: (§2) Analysis of DNA fragmentation by agarose gel electrophoresis. To assess the pattern of DNA cleavage caused by AMR, agarose gel electrophoresis was performed as described by Cohen and Duke (Cohen, J. J. and Duke, R. C. J Immunol, 1984, 132:38-42). Briefly, control and drug-treated cells (2×10^6 cells) were lysed with 0.5 ml lysis buffer containing 0.2% Triton X-100 at room temperature for 30 minutes. The supernatant fractions were collected by centrifugation at 12,000×g for 30 minutes. The DNA in these fractions was precipitated overnight with 100 μl 5 M sodium chloride and 0.5 ml 2-isopropanol at −20° C. The DNA was dissolved in 20 μl of 10 mM Tris-HCl (pH 7.4) and 1 mM EDTA buffer. RNase (10 units) was added to the samples before incubating at 60° C. for 1 hour. An equal volume of loading buffer was added afterwards and the samples were subjected to electrophoresis on a 2% agarose gel in Tris borate buffer at 50 V for 3 hours. The agarose gel was stained with ethidium bromide, and DNA fragmentation pattern was visualized in a UV transilluminator. AMR-induced DNA fragmentation was also analyzed by TUNEL assay using in situ cell detection kit according to manufacturer's instructions. Briefly, cells were permeabilized in a solution containing 0.1% Triton X-100 and 0.1% (w/v) sodium citrate for 2 minutes. After washing in PBS, cells were incubated with label solution and terminal transferase. Cells were incubated without terminal deoxynucleotidyl transferase was used as negative control. DNase (1 μg/ml) treated cells incubated with label solution in the presence of terminal deoxynucleotidyl transferase (TUNEL reaction mixture) was used as positive control and the details of TUNEL assay have been described earlier (Ramachandran, C. et al. Anticancer Res, 1997, 17:3369-3376).
# [6] = test system: MCF-7; assay: DNA fragmentation by agarose gel electrophoresis; assay type: cell-based, human
# Method: as §2
# [7] = test system: MCF-10A; assay: DNA fragmentation by agarose gel electrophoresis; assay type: cell-based, human
# Method: as §2
# [8] = test system: MCF-7/TH; assay: Cell cycle analysis by flow cytometry; assay type: cell-based, human; conditions: 1 μg/ml AMR, one range printed for MCF-7 and MCF-7/TH together
# Method: (§3) Cell cycle analysis. The number of cells in each stage of the cell cycle was monitored by flow cytometric analysis of cellular DNA content after staining with 1 mg/ml propidium iodide (Chen, G. et al. Cancer Res, 1993, 53:2544-2547). Data was analyzed to determine the percentage of cells at each phase of the cell cycle (G0+G1, S, and G2+M).
# [9] = test system: MCF-7; assay: Cell cycle analysis by flow cytometry; assay type: cell-based, human; conditions: 1 μg/ml AMR, one range printed for MCF-7 and MCF-7/TH together
# Method: as §3
# [10] = test system: MCF-10A; assay: Cell cycle analysis by flow cytometry; assay type: cell-based, human; conditions: 1 μg/ml AMR
# Method: as §3
# [11] = test system: SW620/Ad-300; assay: Cellular DOX content by flow cytometry; assay type: cell-based, human; conditions: DOX 2 μg/ml with 1 and 2 μg/ml AMR
# Method: (§4) Cellular DOX Content. […] Cellular DOX fluorescence was analyzed in a Coulter Elite flow cytometer. Fluorescence emission (above 530 nm) from at least 10,000 cells were collected, amplified and scaled to generate a single parameter histogram (Ramachandran, C. et al. Biochem Phammacol, 1995, 49:545-552).
# [12] = test system: CEM; assay: Cellular DOX content by flow cytometry; assay type: cell-based, human; conditions: DOX 2 μg/ml with 1 or 2 μg/ml AMR
# Method: as §4
# [13] = test system: SW620; assay: Cellular DOX content by flow cytometry; assay type: cell-based, human; conditions: DOX 2 μg/ml with 1 or 2 μg/ml AMR
# Method: as §4
# [14] = test system: CEM/VLB; assay: Cellular DOX content by flow cytometry; assay type: cell-based, human; conditions: DOX 2 μg/ml with 1 and 2 μg/ml AMR
# Method: as §4
# [15] = test system: SW620; assay: MTT cytotoxicity assay (Examples 1-5); assay type: cell-based, human; conditions: mean ± SD (n = 3), read-out: AMR IC50
# Source text: Cell proliferation kit I (MTT) from Roche Diagnostics GmbH (Indianapolis, Ind.) was used for cytotoxicity assays and manufacturers protocol was followed for the assay.
# [16] = test system: SW620/Ad-300; assay: DNA histogram analysis of cell cycle distribution; assay type: cell-based, human; conditions: AMR 0-2.5 μg/ml, 48 hours, up from 15.6% without AMR
# Method: (§5) DNA Histogram Analysis. Following drug exposure for 48 hours, cells were centrifuged and resuspended in propidium iodide-hypotonic citrate solution for 1 hour before flow cytometric analysis of cell cycle distribution (Ramachandran, C. et al. Biochem Pharmacol, 1995, 49:545-552).
# [17] = test system: CEM; assay: DNA histogram analysis of cell cycle distribution; assay type: cell-based, human; conditions: AMR 0-2.5 μg/ml, 48 hours, up from 18.0% without AMR
# Method: as §5
# [18] = test system: SW620; assay: DNA histogram analysis of cell cycle distribution; assay type: cell-based, human; conditions: AMR 0-2.5 μg/ml, 48 hours, up from 12.5% without AMR
# Method: as §5
# [19] = test system: CEM/VLB; assay: DNA histogram analysis of cell cycle distribution; assay type: cell-based, human; conditions: AMR 0-2.5 μg/ml, 48 hours, up from 18.0% without AMR
# Method: as §5
# [20] = test system: MCF-7/TH; assay: TUNEL assay of DNA fragmentation; assay type: cell-based, human; conditions: AMR 1-8 μg/ml, 48 hours
# Method: as §2
# [21] = test system: MCF-7; assay: TUNEL assay of DNA fragmentation; assay type: cell-based, human; conditions: AMR 1-8 μg/ml, 48 hours
# Method: as §2
# [22] = test system: MCF-10A; assay: TUNEL assay of DNA fragmentation; assay type: cell-based, human; conditions: AMR 1-8 μg/ml, 48 hours
# Method: as §2
# [23] = test system: MCF-7/TH; assay: Caspase-8 (LETD) activity by flow cytometry; assay type: cell-based, human; conditions: AMR 1-8 μg/ml, 48 hours
# Method: (§6) Detection of apoptosis and caspase activity. Breast carcinoma or breast epithelial cells were incubated for 48 hours in the presence or absence of AMR (1-8 μg/ml). AMR-induced apoptosis was evaluated by Fluorescein Caspase (VAD) Activity Kit and caspase-8 (LETD) Activity Kit according to manufacturer's instructions ([…]-Calvo, M. et al. J Biol Chem, 1998, 273:32608-32613).
# [24] = test system: MCF-7; assay: Caspase-8 (LETD) activity by flow cytometry; assay type: cell-based, human; conditions: AMR 1-8 μg/ml, 48 hours
# Method: as §6
# [25] = test system: MCF-10A; assay: Caspase-8 (LETD) activity by flow cytometry; assay type: cell-based, human; conditions: AMR 1-8 μg/ml, 48 hours
# Method: as §6
# [26] = test system: MCF-7/TH; assay: MTT cytotoxicity assay (Examples 6-8); assay type: cell-based, human; conditions: 0-8 μg/ml AMR for 48 hours
# Method: (§7) Cytotoxicity assay (Examples 6-8). MTT assay was used to determine drug sensitivity (Hansen, M. B. et al. J Immunol Methods, 1989, 119:203-210). Cells (1×10^4) were grown in 96-well plates and after 48 hours, the medium was replaced with new medium. The cells were incubated at 37° C. with varying concentrations of AMR for 48 hours at 37° C. Cell viability was then assayed by adding MTT dye (500 μg/ml). Six hours after incubation period, MTT containing medium was removed. The formazan crystals were dissolved in 100 μl/well dimethyl sulfoxide, and the plates were read in BIO-RAD Benchmark Microplate Reader at 570 nm wavelength. All experiments were repeated three times with three replications in each and the mean values were estimated. Student's t test was used to determine the significant difference between IC50 values.
# [27] = test system: MCF-7; assay: MTT cytotoxicity assay (Examples 6-8); assay type: cell-based, human; conditions: 0-8 μg/ml AMR for 48 hours
# Method: as §7
# [28] = test system: MCF-10A; assay: MTT cytotoxicity assay (Examples 6-8); assay type: cell-based, human; conditions: 0-8 μg/ml AMR for 48 hours
# Method: as §7
smiles,measurement,setting,value
"COc1cccc2c1C(=O)c1c(O)c3c(c(O)c1C2=O)C[C@@](O)(C(=O)CO)C[C@@H]3O[C@H]1C[C@H](N)[C@H](O)[C@H](C)O1 [DOX, Doxorubicin hydrochloride, reference compound]",Survival (%),[1]; 2 mg/kg,83.3%
same,IC50,"[2]; Homo sapiens, SW620/AD300, read-out: DOX IC50, SW620/Ad-300",28.9 ± 0.95 µM
same,resistance to DOX,"[2]; SW620/Ad-300 versus SW620, based on IC50 values",approximately 125 fold
same,IC50,"[3]; Homo sapiens, CCRF-CEM, read-out: DOX IC50, 48 hours exposure",0.12 µg/mL
same,IC50,"[3]; Homo sapiens, CCRF-CEM, read-out: DOX IC50, mean ± SD (n = 3)",0.23 ± 0.02 µM
same,resistance to DOX,[4]; CEM/VLB versus CEM,approximately 112 fold
same,IC50,"[4]; Homo sapiens, read-out: DOX IC50, CEM/VLB, 48 hours exposure",13.4 µg/mL
same,IC50,"[4]; Homo sapiens, read-out: DOX IC50, CEM/VLB, mean ± SD (n = 3)",23.1 ± 0.78 µM
"CC1(C)CC[C@]2(C(=O)O)CC[C@]3(C)C(=CC[C@@H]4[C@@]5(CO)CCC(=O)C(C)(C)[C@@H]5CC[C@]43C)[C@@H]2C1 [AMR, 25-hydroxy-3-oxoolean-12-en-28-oic acid]",DNA ladder pattern,[5]; 1 μg/ml AMR for 48 hours,highly visible
same,DNA ladder pattern,[5]; AMR treatment for 48 hours,distinct ladder pattern
same,DNA ladder pattern,[6]; 1 μg/ml AMR for 48 hours,highly visible
same,DNA ladder pattern,[6]; AMR treatment for 48 hours,distinct ladder pattern
same,DNA fragmentation,[7]; 1 μg/ml AMR for 48 hours,almost undetectable
same,DNA ladder pattern,[7]; AMR treatment for 48 hours,less distinct
same,accumulation in G2+M phase population,[8],12.4%-32.2%
same,accumulation in G2+M phase population,[9],12.4%-32.2%
same,G2/M phase arrest,[10],does not induce any G2/M phase arrest
same,Survival (%),[1]; 2 mg/kg,83.3%
same,Therapeutic ratio,[1]; 2 mg/kg,61.3**
same,Survival (%),[1]; 5 mg/kg,57.1%
same,Therapeutic ratio,[1]; 5 mg/kg,37.6**
same,Survival (%),[1]; 10 mg/kg,57.1%
same,Therapeutic ratio,[1]; 10 mg/kg,41.9**
same,tumor growth rate,"[1]; AMR 2-10 mg/kg intraperitoneal, compared to doxorubicin (2 mg/kg) or saline",significantly reduced tumor growth rate
same,cellular DOX accumulation,[11],increased cellular DOX accumulation in a dose-dependent manner
same,cellular DOX fluorescence,[12],No significant change
same,cellular DOX fluorescence,[13],No significant change
same,cellular DOX accumulation,[14],increased cellular DOX accumulation in a dose-dependent manner
same,Modulator Index (MI = fold decrease in resistance/modulator in μM concentration),[2]; SW620/Ad-300,41.6
same,IC50,"[2]; SW620/Ad-300, read-out: AMR IC50",12.7 ± 0.27 µM
same,resistance to AMR,[2]; SW620/Ad-300 versus SW620,1.6 fold
same,IC50,"[3]; mean ± SD (n = 3), read-out: AMR IC50",5.31 ± 0.02 µM
same,Modulator Index (MI = fold decrease in resistance/modulator in μM concentration),[4]; CEM/VLB,40
same,resistance to AMR,[4]; CEM/VLB versus CEM,1.9 fold
same,IC50,"[4]; CEM/VLB, mean ± SD (n = 3), read-out: AMR IC50",10.2 ± 0.11 µM
same,IC50,[15],7.7 ± 0.15 µM
same,G2+M percentage,[16],52.8%
same,percentage of G2+M cells,[17],61.1%
same,G2+M percentage,[18],59.5%
same,percentage of G2+M cells,[19],48.7%
same,cells with DNA fragmentation (TUNEL),[20],32-48.7%
same,cells with DNA fragmentation (TUNEL),[21],37.3-72.1%
same,cells with DNA fragmentation (TUNEL),[22],0-37.1%
same,cells with caspase activation (caspase-8 positive cells),[23],28.5-43.2%
same,cells with caspase activation (caspase-8 positive cells),[24],40.8-71%
same,cells with caspase activation (caspase-8 positive cells),[25],4-32.8%
same,IC50,[26],6.8 µg/mL
same,IC50,[27],3.8 µg/mL
same,IC50,[28],6.9 µg/mL
